How the values were obtained:
[1] = Stability / storage of the nitro colorant in (oxidation) dyeing composition or reducing alkaline medium; format: physicochemical; details: oxidation dye composition with ammonia and sodium bisulphite (Examples 26, 27)

| stability of the nitro colorant in the liquid composition [1] | SMILES | harmlessness (Harmlessness / toxicity) |
| --- | --- | --- |
|  | Cc1c(NCCN)cc([N+](=O)[O-])c(N)c1C [4-amino-5,6-dimethyl-3-nitro-N-β-aminoethylaniline] | particularly harmless |
| stable in the liquid composition | Cc1c(N)cc([N+](=O)[O-])c(N)c1C [5,6-dimethyl-3-nitroparaphenylenediamine] | particularly harmless |
|  | CCN(CC)CCNc1cc([N+](=O)[O-])c(N)c(C)c1C [4-amino-5,6-dimethyl-3-nitro-N-(β-diethylaminoethyl)aniline] | particularly harmless |
| preserved | Cc1cc(N)c([N+](=O)[O-])c(C)c1N [2,6-dimethyl-3-nitroparaphenylenediamine] | particularly harmless |
|  | Cc1c(NCC(O)CO)cc([N+](=O)[O-])c(N)c1C (stereo not drawn) [4-amino-5,6-dimethyl-3-nitro-N-β,γ-dihydroxypropylaniline] | particularly harmless |
|  | Cc1c(NCCO)cc([N+](=O)[O-])c(N)c1C [4-amino-5,6-dimethyl-3-nitro-N-β-hydroxyethylaniline] | particularly harmless |
|  | CNc1c(C)cc(N)c([N+](=O)[O-])c1C [4-amino-2,6-dimethyl-3-nitro-N-methylaniline] | particularly harmless |
